Source: PubChem BioAssay AID540268 (Broad Institute, 2011)
Activity calls are given as the source filed them. How the calls were made is not given here.

Test: growth inhibition of yeast carrying parasite Hsp90, dose response, anti-malarial Hsp90 inhibitor project, ATP luminescence, 48 h, cherry-picked samples (AID 540268);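 on activity change, negative = inhibition: 0% = neutral control wells and -100% = positive control wells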
Details: yeast expressing the parasite Hsp90, ATP luminescence; for activity change, negative = inhibition: at 26 µM (top of the series)

Oc1ccc(Cl)cc1Sc1cc(Cl)ccc1O
AC50: 3.07 µM

COc1ccc(C(=O)N/N=C/c2sc3ccccc3c2O)cc1
AC50: 2.35 µM

Cc1ccc(C)c(/C=C/C(=O)c2ccccc(=O)c2O)c1
AC50: 2.19 µM

O=C(c1ccc2c(=O)n(C3CCCC3)c(=S)[nH]c2c1)N1CCc2ccccc21
AC50: 6.25 µM

Cc1ccc(C(C)C)c(OCc2ccc(C(=O)N/N=C/c3cccc(O)c3O)cc2)c1
AC50: 1.62 µM

c1ccc(-c2c(-c3ccccc3)n(Cc3ccco3)c3ncnc(NCCCn4ccnc4)c23)cc1
AC50: 1.83 µM

Cc1ccc(N2C(=O)C3C4C=CC(CNC(=S)N5CCN(c6ccccc6)CC5)(O4)C3C2=O)cc1 (stereo not given)
AC50: 6.93 µM

CC1CCN(C2CC(=O)N(c3ccc(Br)cc3Br)C2=O)CC1 (stereo not given)
AC50: 0.774 µM

O=[N+]([O-])c1cc(/C=N/O)ccc1Oc1ccccc1Cl
AC50: 2.86 µM

O=[N+]([O-])c1c(Nc2ccccn2)cc(Cl)c2nonc12
AC50: 0.803 µM

CCOC(=O)c1ccc(N2C(=O)CC(N3CCC(Nc4ccc(F)cc4)CC3)C2=O)cc1 (stereo not given)
AC50: 4.58 µM

O=[N+]([O-])c1ccc(Sc2cccc[n+]2[O-])c2nonc12
AC50: 6.88 µM

Oc1ccc(N=Nc2nc(-c3ccccc3)c(-c3ccccc3)[nH]2)cc1
AC50: 6.13 µM

O=C1C(F)=CC(COC(c2ccccc2)(c2ccccc2)c2ccccc2)OC1n1cc(F)c(=O)[nH]c1=O (stereo not given)
AC50: 0.718 µM

Oc1c(CN2CCc3ccccc3C2)cc(Cl)c2cccnc12
AC50: 7.82 µM

CC(=O)NC(c1ccc(C)cc1)c1cc(Cl)c2cccnc2c1O (stereo not given)
AC50: 4.09 µM

O=C1c2ccccc2NC(c2ccc(-c3ccc(Br)cc3)o2)N1O (stereo not given)
AC50: 7.96 µM

CC(C)(C)SCCNC(=O)c1ccc(Cl)c([N+](=O)[O-])c1
AC50: 4.37 µM

COc1cc(/C=C2\SC(=S)N(Nc3ncc(C(F)(F)F)cc3Cl)C2=O)ccc1O
AC50: 25.8 µM

COc1cc(N2C(=O)C=CC2=O)c(OC)cc1Cl
AC50: 1.77 µM

O=C(OCn1ncc(Br)c(Br)c1=O)c1ccccc1Cl
AC50: 4.29 µM

O=C(CC(O)(C(F)(F)F)C(F)(F)F)Nc1ccc(Cl)c(Cl)c1
AC50: 17.5 µM

Cc1ccc(-c2cc(C(=O)N3N=C(C(F)F)CC3(O)C(F)F)c3ccccc3n2)cc1C (stereo not given)
AC50: 2.93 µM

N/C(Cc1ccc(Cl)cc1Cl)=N\OC(=O)c1cccs1
AC50: 6.39 µM

CC1=C/C(=N\OS(=O)(=O)c2ccccc2)C(C)=CC1=O
AC50: 0.597 µM

CCC(=O)NC(c1cccs1)c1ccc2cccnc2c1O (stereo not given)
AC50: 7.69 µM

CC(C)C(=O)NC(c1ccc(Cl)cc1Cl)c1ccc2cccnc2c1O (stereo not given)
AC50: 15.3 µM

COc1ccc(C(C)(C)C)cc1NC(=O)Nc1ccc2c(c1)OCO2
AC50: 8.96 µM

COc1ccc(C(=O)Nc2cc(C(=O)c3ccccc3)c(C)oc2=O)cc1
activity change, negative = inhibition: 36.8% (inactive)

NC(=O)/C=C\C(=O)Nc1cccc(C(F)(F)F)c1
activity change, negative = inhibition: 12.6% (inactive)

O=C(N/N=C/c1ccc([N+](=O)[O-])o1)c1sc2ccccc2c1Cl
activity change, negative = inhibition: 18.4% (inactive)

CC(C)CC(=O)/C(=C\c1ccc(Cl)cc1Cl)n1cncn1
AC50: 1.75 µM

CC(C)N(CCC(=O)c1ccc2ccccc2c1)Cc1ccccc1
AC50: 17.6 µM

O=S(=O)(c1c(F)cccc1F)N(CCc1ccc(F)cc1)C[C@@H](O)COCc1ccccc1
AC50: 1.2 µM

COc1ccc(C2=CC3=C(Br)C(=O)C(C)(OC(=O)C4CCCC4)C(=O)C3=CO2)cc1 (stereo not given)
AC50: 4.4 µM

O=C(/C=C/c1ccccc1)c1cc(Br)ccc(=O)c1O
AC50: 1.51 µM

CSC(=S)NN=C(C)c1cccc(C)n1
AC50: 15.6 µM

CC(=NNC(=S)N1CCCCCC1)c1ccccn1
AC50: 3.89 µM

OCCOCCn1c(C2CCCN2c2nc(-c3ccc(F)cc3)cs2)nc2cc(Cl)c(Cl)cc21 (stereo not given)
AC50: 6 µM

COCCOC(=O)/C(=C/c1ccc(OC(=O)c2ccccc2)cc1)C(C)=O
AC50: 2.68 µM

CC(=O)C1=C(c2ccc(Br)cc2)C(=O)c2ccccc2C1=O
AC50: 7.82 µM

CCOC(=O)C1=C(CC)Nc2ccccc2N=C1NC(=O)Nc1ccc(Cl)c(Cl)c1
AC50: 1.43 µM

CCOc1cc(/C=C\[N+](=O)[O-])ccc1OCC(=O)Nc1ccccc1C
AC50: 2.61 µM

O=c1oc(-c2ccccc2)cc(Cl)c1Cl
AC50: 3.77 µM

NC(=Nc1nc(-c2ccccn2)cc2ccccc12)c1ccccn1
AC50: 3.78 µM

O=[N+]([O-])c1ccc(O)c(C2CCCCC2)c1
AC50: 4.84 µM

O=C(CCSc1nnc(-c2ccncc2)o1)Nc1ccc(Cl)cc1
AC50: 2.87 µM

COc1cc2cc(C(=O)N3CC(COS(C)(=O)=O)c4ccc(O)cc43)[nH]c2c(OC)c1OC (stereo not given)
AC50: 1.55 µM

CCOc1ccc2c(ccc(/C=C/c3cc(C)c4cccnc4c3O)[n+]2C)c1
AC50: 4.11 µM

Cc1ccc(S(=O)(=O)N(C(=O)c2ccncc2)c2ccc(OC(=O)c3ccncc3)cc2)c(C)c1
AC50: 3.45 µM

c1ccc(-c2nnc(-c3ccccn3)nc2NC2CCCCC2)cc1
AC50: 0.393 µM

O=C1CC(N2CCN(c3nc4ccccc4s3)CC2)C(=O)N1Cc1cccs1 (stereo not given)
AC50: 4.66 µM

CC(C)(C)c1cc(C(c2cccnc2)N2CCN(CCO)CC2)cc(C(C)(C)C)c1O (stereo not given)
AC50: 25 µM

Oc1ccc(C2=NN(c3ccccc3)C(c3ccc(F)cc3)C2)cc1 (stereo not given)
AC50: 3.35 µM

Clc1ccc(C(c2ccc(Cl)cc2)n2cc[n+](CC(OCc3ccc(Cl)cc3Cl)c3ccc(Cl)cc3Cl)c2)cc1 (stereo not given)
AC50: 5.47 µM

O=C(Nc1nnc(-c2ccc3c(c2)CCCC3)o1)c1ccc(Cl)cc1Cl
AC50: 3.35 µM

COc1ccc(-c2nn(-c3ccccc3)cc2C(=O)N2CCN(S(=O)(=O)c3cccc(F)c3)CC2)cc1
AC50: 1.15 µM

CCN(CC)C1CC(=O)N(c2ccc(Br)cc2)C1=O (stereo not given)
AC50: 2.97 µM

O=C(CSCC(=O)N1CCCCC1)Nc1nc(-c2ccc(Cl)s2)cs1
AC50: 4.76 µM

CCCOC(=O)c1ccc(Oc2cn[nH]c2-c2ccc(OC)cc2O)cc1
AC50: 6 µM

CC(C)(C)C(O)C(Cc1ccccc1Cl)n1cncn1 (stereo not given)
AC50: < 0.195 µM

CC1C/C(=C/c2ccncc2)C(=O)/C(=C/c2ccncc2)C1 (stereo not given)
AC50: 2.83 µM

CC(=O)OC1(C)CC(C)C(=O)C(C(O)CC2CC(=O)NC(=O)C2)C1 (stereo not given)
AC50: < 0.195 µM

COC(=O)C1=C(C(=O)OC)SC2(S1)C(C(=O)OC)=C(C(=O)OC)Sc1c2ssc1=O
AC50: 8.87 µM

Nc1ccccc1C#CC(=O)c1ccccc1
AC50: 7.65 µM

Cc1cc([N+](=O)[O-])c2ccccc2[n+]1[O-]
AC50: < 0.195 µM

CC(C)(C)c1nn(-c2ccccc2)c2[nH]c(=O)c(CNc3ccc4c(c3)OCCO4)cc12
activity change, negative = inhibition: -106% (inactive)

Cc1ccc(N=Cc2cc(Cc3ccccc3Cl)cc([N+](=O)[O-])c2O)c(O)c1
AC50: 0.216 µM

CCCCC(=O)NC(c1ccc(Cl)cc1)c1ccc2cccnc2c1O (stereo not given)
AC50: 16.4 µM

C/C(=N\Nc1ncnc2sc(C)c(C)c12)c1ccccn1
AC50: 2.01 µM

CCOc1ccc(NCc2cc3c(C(C)(C)C)nn(-c4ccccc4)c3[nH]c2=O)cc1
AC50: 18.1 µM

CN(C)c1ccc(C=c2c3ccccc3n3c2cc(-c2ccccc2)[n+]3C)cc1
AC50: 4.33 µM

Cc1ccc(NC(=O)c2nc(S(=O)(=O)Cc3ccccc3)ncc2Cl)cc1
AC50: 4.12 µM

O=C1/C(=C\c2cccc(O)c2O)SC(=S)N1Cc1ccccc1
AC50: 9.6 µM

CCCCCCC(=O)N(O)C1CC(=O)N(c2ccc(Br)cc2)C1=O (stereo not given)
AC50: 2.22 µM

O=C(C#Cc1cccc([N+](=O)[O-])c1)c1ccccc1
AC50: 0.36 µM

Cc1ccc2nc(-c3ccc(NS(C)(=O)=O)cc3)cc(-c3ccccc3)c2c1
AC50: 2.95 µM

C/C(=N\NC(=O)c1cc2ccccc2cc1O)c1ccccn1
AC50: 8.31 µM

O=C1Nc2ccc(Br)cc2/C1=C/C(=O)c1ccccc1
AC50: 1.42 µM

CCCCN1C(=O)/C(=C/C=C2\Oc3ccccc3N2CC)SC1=S
activity change, negative = inhibition: 32.9% (inactive)

Cc1c(OCC(=O)C(C)(C)C)ccc2c(-c3ccccc3)cc(=O)oc12
AC50: 8.35 µM

O=C(c1ccccc1)c1cc(Cl)ccc1N1C(=O)C=CC1=O
AC50: 0.432 µM

CN(C)/C=C/C(=O)c1ccc(N2CCN(c3ncc(C(F)(F)F)cc3Cl)CC2)cc1
AC50: 4.16 µM

CCCCC(=O)NC(c1ccccc1)c1ccc2cccnc2c1O (stereo not given)
AC50: 23.6 µM

Cc1ccc(N=Cc2c(C)[nH]n(-c3nc4ccccc4[nH]3)c2=O)cc1
AC50: 2.4 µM

O=C(/C=C/c1cccc(C(F)(F)F)c1)Nc1cccc(C(F)(F)F)c1
AC50: 8.08 µM

COc1cccc(/C=C2/CCC(CN(C)C)C2=O)c1 (stereo not given)
AC50: 7.93 µM

C=CCc1c(C)c(C#N)c2nc3ccccc3n2c1NCCN(C)C
AC50: 4.58 µM

COc1cc2c(cc1OC)C(=O)N1[C@H]3c4ccccc4OC[C@@H]3[C@H](c3ccccc3)[C@]1(C)C(=O)N2
AC50: 8.37 µM

Cc1cc(Br)c2c(c1)/C(=C/C(=O)c1cccs1)C(=O)N2
activity change, negative = inhibition: -12.3% (inactive)

COc1ccc([N+](=O)[O-])c(S(=O)(=O)c2ccc(Cl)cc2)n1
AC50: 1.27 µM

CCCOc1ccc(N2C(=O)CC(N3CCC(C(=O)OCC)CC3)C2=O)cc1 (stereo not given)
AC50: 6.07 µM

O=[N+]([O-])c1cc2no[n+]([O-])c2cc1N1CCCCC1
AC50: 0.877 µM

OCCOCCn1c(C2CCCN2c2nc(-c3ccc(F)cc3)cs2)nc2cc(C(F)(F)F)ccc21 (stereo not given)
AC50: 7.92 µM

O=C(NCC1CCCO1)c1cc([N+](=O)[O-])ccc1N1CCC(Cc2ccccc2)CC1 (stereo not given)
AC50: 4.06 µM

CC(C)Oc1ccc(C(=O)/C=C2/C(=O)Nc3ccccc32)cc1
AC50: 2.62 µM

CCN(CC)S(=O)(=O)c1cccc(NC(=O)c2ccc(Br)cc2)c1
AC50: 5.81 µM

Cn1c(CNc2ccc(Cl)cc2)nnc1SCc1ccccc1
AC50: 3.43 µM

O=[N+]([O-])c1ccc2c(c1)-c1ccccc1C2=NO
AC50: 2.72 µM

COc1cc(C#Cc2c(-c3cncn3C)n(C)c3ccc(-c4ccc(OC)nc4)cc23)cc(OC)c1
AC50: 4.74 µM

O=c1c2ccccc2nc(-c2ccc(-c3ccccc3)cc2)n1-c1ccncc1
AC50: 5.21 µM

CCN1/C(=C/c2ccc3cc(C)ccc3[n+]2CC)Sc2cc(C)ccc21
AC50: 5.54 µM

O=C(C#Cc1ccccc1)c1ccco1
AC50: 1.95 µM

O=c1cc(-c2ccccc2)cc(-c2ccccc2)n1O
AC50: 1.17 µM

COc1ccc(C(=O)O/N=C2\C(=O)N(C)c3ccccc32)cc1
AC50: < 0.195 µM

O=C(Nc1ccc(F)cc1)c1nc(S(=O)(=O)Cc2ccccc2)ncc1Cl
AC50: 5.68 µM

O=C1Nc2ccc(Br)cc2/C1=C/C1CC=CCC1 (stereo not given)
AC50: 8.99 µM

Cc1ccc2[nH]c(C)c(/C=N/Nc3nc4ccccc4s3)c2c1
AC50: 2.63 µM

Cc1ccc(N=c2ssnc2Cl)cc1
AC50: 3.28 µM

CCN1C/C(=C/c2cccc([N+](=O)[O-])c2)C(=O)/C(=C/c2cccc([N+](=O)[O-])c2)C1
AC50: 3.22 µM
